Measured values: patent publication US12569494B2, “Compositions and methods to promote thymic regeneration” (Fred Hutchinson Cancer Center, priority 2018, dated 2026)

How the values were obtained:
[1] = test system: Ex-vivo ECs (exECs); assay: Bmp4 expression by qPCR in ex-vivo thymic endothelial cells (exECs); type: cell-based, mice; conditions: 50 μM Rho GTPase inhibitor, 20 h overnight, qPCR (FIG. 7A)
Experimental: (§1) FIGS. 7A, 7B. Rho GTPase inhibition, using several small molecule inhibitors, promotes the expression of Bmp4 and the II12p40 subunit of IL-23. Ex-vivo ECs (exECs) were generated from FACS purified ECs from the thymus and transduced with lentivirus containing the adenoviral gene E4orf1, as described here Proc Natl Acad Sci USA. 2008 Dec. 9; 105(49):19288-93. The exECs were cultured in Advanced DMEM-F12 (Gibco Life Technologies 12634-028) with 20% FBS, 10 mM HEPES buffer, 1% Glutamax (Life Technologies 35050061), 1% Pen Strep, 1% Non-Essential Amino Acids (Life Technologies 11140050), 50 μg/ml Endothelial cell supplement (Alfa Aesar J64516, BT-023), 5 μM SB431542 (R&D Systems 1614), 20 ng/ml FGF (Peprotech 100-18B), 10 ng/ml VEGF (Peprotech 450-32) at 37° C., 5% O2 and 5% CO2. […] Bmp4 and II-12p40 expression were determined by qPCR (exECs, n=3-6 wells from 2 separate experiments; DCs, n=3 mice).
(§2) FIGS. 10A, 10B: In vitro treatment with a synthetic miR29c mimic reduces the expression of Bmp4 & IL-23, in ECs and DCs, respectively. exECs and DCs were generated and maintained as described in FIGS. 7A, 7B. […] Bmp4 and IL-23 expression were determined by qPCR (n=3).

[2] = test system: Thymic dendritic cells (DCs); assay: Il-12p40 / IL-23 expression by qPCR in thymic dendritic cells (DCs); type: cell-based, C57BL/6 mice; conditions: 50 μM Rho GTPase inhibitor, 20 h overnight, qPCR (FIG. 7B)
Experimental: as §1, §2

[3] = test system: ECs; assay: BMP4 expression in ECs after ATP; type: cell-based; conditions: NF-kB independent manner
[4] = test system: exECs; assay: miR29 family expression by qPCR in exECs after Rac1,2,3 inhibition; type: cell-based, mice; conditions: 50 μM inhibitor, qPCR (FIG. 11)
Experimental: FIGS. 7A, 7B. Rho GTPase inhibition, using several small molecule inhibitors, promotes the expression of Bmp4 and the II12p40 subunit of IL-23. Ex-vivo ECs (exECs) were generated from FACS purified ECs from the thymus and transduced with lentivirus containing the adenoviral gene E4orf1, as described here Proc Natl Acad Sci USA. 2008 Dec. 9; 105(49):19288-93. The exECs were cultured in Advanced DMEM-F12 (Gibco Life Technologies 12634-028) with 20% FBS, 10 mM HEPES buffer, 1% Glutamax (Life Technologies 35050061), 1% Pen Strep, 1% Non-Essential Amino Acids (Life Technologies 11140050), 50 μg/ml Endothelial cell supplement (Alfa Aesar J64516, BT-023), 5 μM SB431542 (R&D Systems 1614), 20 ng/ml FGF (Peprotech 100-18B), 10 ng/ml VEGF (Peprotech 450-32) at 37° C., 5% O2 and 5% CO2. Thymic dendritic cells (DCs) were obtained from the thymus of 6 week old C57BL/6 mice, where post enzymatic digestion CD11c+ cells were isolated using magnetic beads (Miltenyi Biotech 130-108-338), and cultured in DMEM plus 10% FBS and 1% PenStrep at 37° C., 21% O2 and 5% CO2. The exECs and DCs were separately treated with 50 μM of the individual Rho GTPase inhibitors: RhoA (Millipore/Sigma, Rhosin, CAS 1173671-63-0, 555460-25MG), ROCK (TC-S 700, Tocris, 4961), Rac1,2,3 (Tocris, EHT 1864, 2161), and Cdc42 (Millipore/Sigma, CDC42 Inhibitor III, ZCL278, 500503) for 20 h overnight before being lysed and prepared for RNA extraction. Bmp4 and II-12p40 expression were determined by qPCR (exECs, n=3-6 wells from 2 separate experiments; DCs, n=3 mice).
FIG. 11. miR29c expression is reduced after Rac1 inhibition in ECs. exECs were treated with 50 μM Rac1,2,3 (Tocris, EHT 1864, 2161) inhibitor as described in FIGS. 7A, 7B. cDNA was prepared from isolated RNA using the Taqman Advanced miRNA cDNA Synthesis kit (Thermo Fisher A28007), and relative miR29c expression was assessed by qPCR (primers from Thermo Fisher A25576).

SMILES	Bmp4 expression [1]	iI-12p40 expression [2]	BMP4 expression [3]	miR29c expression ([4]; compared with untreated)	miR29a levels [4]	miR29b levels [4]
Cl.N[C@H](Cc1c[nH]c2ccccc12)C(=O)N/N=C/c1ccc2nccnc2c1 [Rhosin, D-Tryptophan (2E)-2-(6-quinoxalinylmethylene)hydrazide hydrochloride]	significantly upregulated	significantly upregulated				
Nc1ncnc2c1ncn2[C@@H]1O[C@H](COP(=O)(O)OP(=O)(O)OP(=O)(O)O)[C@@H](O)[C@H]1O [ATP]			induces			
Cl.Cl.O=c1cc(CN2CCOCC2)occ1OCCCCCSc1ccnc2cc(C(F)(F)F)ccc12 (racemic) [EHT 1864, 5-(5-(7-(Trifluoromethyl)quinolin-4-ylthio)pentyloxy)-2-(morpholinomethyl)-4H-pyran-4-one dihydrochloride]	significantly upregulated	significantly upregulated		significantly reduced	not reduced	not reduced
